Where a SMILES comes first, the peptide text is derived from it.
What was measured:
sCD4 = target: T1, sCD4 (Homo sapiens, UniProt P01730); test: Microtiter binding of sCD4-HRP to plate-bound Salp15 and synthetic peptides
T1 construct: the extracellular four domains of CD4 (sCD4); purchased Research Diagnostics Inc., Flanders, N.J., U.S.A
Procedure: Purified sCD4 was coated overnight at 4° C. at the indicated concentrations in 0.1M sodium carbonate buffer (pH 9.5) in 96 well plates. Equimolar amounts of lysozyme were used as a non-specific control. The wells were washed, blocked with 10% FCS/PBS for 1 hr at R.T., and incubated with Salp15 (0.4 μM) for 2 hr at 37° C. Salp15 binding was detected by incubation with horseradish peroxidase (HRP)-conjugated anti-His antibody for 1 hr followed by microwell peroxidase substrate (KPL). The reaction was stopped by adding TMB stop solution (KPL). Chemically synthesized overlapping peptides of Salp15 were purchased from GenScript Corporation (Piscataway, N.J., U.S.A). To study the binding of Salp15 and peptides to sCD4, Salp15 (5 μg) and different peptides (0.5 μg) were coated. The wells were washed and blocked prior to incubation with sCD4-HRP (Research Diagnostics Inc., Flanders, N.J., U.S.A.). For competition assays, indicated concentrations of Salp15 or P11 were added to sCD4-HRP and incubated with plate bound P11 (0.1 μg). To estimate the effect of dithiothreitol (DTT) treatment of Salp15 on binding to sCD4, 0.5 μM Salp15 was treated with 10 mM DTT overnight and immobilized onto microtiter plate followed by blocking and incubation with sCD4-HRP.
Dissociation constants were determined by non-linear curve fit. The results are expressed as the mean±S.E. of 3 to 5 individual experiments.

CD4+ T cells [1] = test: IL-2 production (capture ELISA) by CD4+ T cells activated with plate bound anti-CD3 and soluble anti-CD28; type: cell-based, mouse; details: for Inhibition of CD4+ T cell IL-2 production: pretreatment with peptide, 24 hr of activation
Procedure: FIG. 6D is a graph showing purified CD4^+ T cells were activated in vitro with plate bound anti-CD3 and soluble anti-CD28 in the absence or presence of Salp15 (50 μg/mL), P11, or P8. The supernatants were analyzed at 24 hr of activation for IL-2 levels by capture ELISA.
(§1) Naïve CD4+ T cells from C3H/HeN, Balb/c, and B10.BR mice were purified as previously described (Anguita et al., 2002). CD4+ T cells were preincubated in Click's modified Bruff's Medium (Sigma Chemical Co., St. Louis, Mo., U.S.A.) for 10 minutes at 37° C. with and without Salp15 (50 μg/mL) and stimulated for 20 min or the indicated times at 37° C. with 10 μg/mL of anti-CD3ε, 1 μg/mL of anti-CD28, and 10 μg/mL of anti-armenian and syrian hamster IgG (BD Biosciences Pharmingen, San Jose, Calif., U.S.A.). Jurkat (E6-1) cells were stimulated using 5 μg/mL of OKT3 mAb (eBioscience, San Diego, Calif., U.S.A.) and 1 μg/mL of anti-human CD28 cross linked with 5 μg/mL anti-mouse IgG for the indicated times.

CD4+ T cells [2] = test: Lipid raft redistribution (CTB594 staining, receptor capping) in activated CD4+ T cells; type: cell-based, mouse; details: pretreatment with peptide 0.2 μg/mL; anti-CD3/CD28 20 min
Procedure: as §1
For the visualization of lipid rafts, phospho-tyrosine, and cytoskeleton reorganization, CD4^+, CD8^+ or Jurkat cells were cytospun for 10 minutes at 1000 RPM onto positively charged microslides (Fisher Scientific, Hampton, N.H., U.S.A.). The cells were fixed with 3.7% paraformaldehyde (Sigma Chemical Co.) for 15 minutes and stained with CTB594 (Molecular Probes, Eugene, Oreg., U.S.A.), AlexaFluor488 labeled phalloidin (Molecular Probes) or (1:50) biotin-conjugated anti-p-Tyr (PY99) followed by Streptavidin-AlexaFluor594 (1:100, Molecular Probes). For p-LAT and p-PLCγ1 staining, fixed cells were treated with PBS containing 0.1% Triton-X 100 and 100 mM glycine for 15 min at room temperature and stained using rabbit p-LAT (Tyr^191) or rabbit anti-p-PLCγ1 (Tyr^783) probed with anti-rabbit IgG488 (Molecular Probes).
For receptor capping studies, mouse primary B and CD11^+ cells were purified by positive selection using biotin anti-mouse CD45R/B220 clone RA3-6B2 and biotin anti-mouse CD11b clone M1/70 (BD Biosciences Pharmingen) respectively, followed by incubation with magnetic microbeads. The cells were analyzed for receptor capping using 25 μg/mL anti-mouse IgM and 25 μg/mL anti-mouse CD16/CD32 respectively, cross-linked with 25 μg/mL of anti-rat IgG594 for 10 min in the presence or absence of 50 μg/mL of Salp15. […]

Compound	Saturable binding to sCD4 with increasing concentrations (sCD4)	Activity for modulating naïve CD4+ T cell activation among the tested polypeptide fragments (CD4+ T cells [1])	Binding of overlapping synthetic peptides to sCD4 (sCD4; peptides 0.5 μg coated, sCD4-HRP)	Inhibition of CD4+ T cell IL-2 production (CD4+ T cells [1])	Lipid rafts clustering in response to T cell activation (CD4+ T cells [2])
EKNKCVGHIPGC (listed as Ixodes scapularis) [Peptide P11-2]	saturable binding	highest activity	–	–	–
CC[C@H](C)[C@H](NC(=O)[C@H](Cc1c[nH]cn1)NC(=O)CNC(=O)[C@@H](NC(=O)[C@H](CS)NC(=O)[C@H](CCCCN)NC(=O)[C@H](CC(N)=O)NC(=O)[C@H](CCCCN)NC(=O)[C@H](CCC(=O)O)NC(=O)[C@H](C)NC(=O)[C@H](CS)NC(=O)[C@@H](NC(=O)[C@H](CCC(N)=O)NC(=O)CNC(=O)[C@H](CC(N)=O)NC(=O)[C@@H]1CCCN1C(=O)CN)[C@@H](C)O)C(C)C)C(=O)N1CCC[C@H]1C(=O)NCC(=O)N[C@@H](CS)C(=O)O [Peptide P11] (H-GPNGQTCAEKNKCVGHIPGC-OH; N-terminus and C-terminus assumed)	–	highest activity	showed binding	dose dependent inhibition	reduction
NCTFLCKHGNDVNVTLNLPE (listed as Ixodes scapularis) [Peptide P8]	no binding	–	–	did not exert any inhibition	did not show any effect
